Measured values reported in ChEMBL document CHEMBL3792365, “Dioxol and dihydrodioxin analogs of 2- and 3-phenylacetonitriles as potent anti-cancer agents with nanomolar activity against a variety of human cancer cells” (2016).

Experiments:
Type in all cases: functional
NCI-H23 = test: Growth inhibition of human NCI-H23 cells at 10 uM after 48 hrs by sulforhodamine B assay; details: NCI-H23, 48 h, values are per cent of control
[1] = Growth inhibition of human SNB75 cells at 10 uM after 48 hrs by sulforhodamine B assay; details: SNB-75, 48 h, values are per cent of control
NCI-H460 = test: Growth inhibition of human NCI-H460 cells at 10 uM after 48 hrs by sulforhodamine B assay; details: NCI-H460, 48 h, values are per cent of control
[2] = Growth inhibition of human SF268 cells at 10 uM after 48 hrs by sulforhodamine B assay; details: SF-268, 48 h, values are per cent of control
[3] = Growth inhibition of human HOP62 cells at 10 uM after 48 hrs by sulforhodamine B assay; details: HOP-62, 48 h, values are per cent of control
SR = test: Growth inhibition of human SR cells at 10 uM after 48 hrs by sulforhodamine B assay; details: values are per cent of control
[4] = Growth inhibition of human RXF393 cells at 10 uM after 48 hrs by sulforhodamine B assay; details: RXF 393, 48 h, values are per cent of control
A498 = test: Growth inhibition of human A498 cells at 10 uM after 48 hrs by sulforhodamine B assay; details: A498, 48 h, values are per cent of control
[5] = Growth inhibition of human Hs 578T cells at 10 uM after 48 hrs by sulforhodamine B assay; details: values are per cent of control
[6] = Growth inhibition of human Caki1 cells at 10 uM after 48 hrs by sulforhodamine B assay; details: CAKI-1, 48 h, values are per cent of control
T47D = test: Growth inhibition of human T47D cells at 10 uM after 48 hrs by sulforhodamine B assay; details: values are per cent of control
NCI-H226 = test: Growth inhibition of human NCI-H226 cells at 10 uM after 48 hrs by sulforhodamine B assay; details: NCI-H226, 48 h, values are per cent of control
K562 = test: Growth inhibition of human K562 cells at 10 uM after 48 hrs by sulforhodamine B assay; details: K562, 48 h, values are per cent of control
[7] = Growth inhibition of human TK10 cells at 10 uM after 48 hrs by sulforhodamine B assay; details: TK-10, 48 h, values are per cent of control
SN12C = test: Growth inhibition of human SN12C cells at 10 uM after 48 hrs by sulforhodamine B assay; details: values are per cent of control
[8] = Growth inhibition of human SF295 cells at 10 uM after 48 hrs by sulforhodamine B assay; details: SF-295, 48 h, values are per cent of control
[9] = Growth inhibition of human NCI-ADR-RES cells at 10 uM after 48 hrs by sulforhodamine B assay; details: values are per cent of control
[10] = Growth inhibition of human HCT116 cells at 10 uM after 48 hrs by sulforhodamine B assay; details: HCT-116, 48 h, values are per cent of control
[11] = Growth inhibition of human HCC2998 cells at 10 uM after 48 hrs by sulforhodamine B assay; details: HCC 2998, 48 h, values are per cent of control
MDA-MB-468 = test: Growth inhibition of human MDA-MB-468 cells at 10 uM after 48 hrs by sulforhodamine B assay; details: MDA-MB-468, 48 h, values are per cent of control
[12] = Growth inhibition of human SF539 cells at 10 uM after 48 hrs by sulforhodamine B assay; details: SF-539, 48 h, values are per cent of control
[13] = Growth inhibition of human UACC62 cells at 10 uM after 48 hrs by sulforhodamine B assay; details: UACC-62, 48 h, values are per cent of control
[14] = Growth inhibition of human COLO205 cells at 10 uM after 48 hrs by sulforhodamine B assay; details: COLO 205, 48 h, values are per cent of control
[15] = Growth inhibition of human SNB19 cells at 10 uM after 48 hrs by sulforhodamine B assay; details: SNB-19, 48 h, values are per cent of control
[16] = Growth inhibition of human OVCAR4 cells at 10 uM after 48 hrs by sulforhodamine B assay; details: OVCAR-4, 48 h, values are per cent of control
SK-MEL-28 = test: Growth inhibition of human SK-MEL-28 cells at 10 uM after 48 hrs by sulforhodamine B assay; details: SK-MEL-28, 48 h, values are per cent of control
NCI-H522 = test: Growth inhibition of human NCI-H522 cells at 10 uM after 48 hrs by sulforhodamine B assay; details: NCI-H522, 48 h, values are per cent of control
MDA-MB-435 = test: Growth inhibition of human MDA-MB-435 cells at 10 uM after 48 hrs by sulforhodamine B assay; details: MDA-MB-435, 48 h, values are per cent of control
U-251 = test: Growth inhibition of human U251 cells at 10 uM after 48 hrs by sulforhodamine B assay; details: U-251, 48 h, values are per cent of control
ACHN = test: Growth inhibition of human ACHN cells at 10 uM after 48 hrs by sulforhodamine B assay; details: values are per cent of control
NCI-H322M = test: Growth inhibition of human NCI-H322M cells at 10 uM after 48 hrs by sulforhodamine B assay; details: values are per cent of control
[17] = Growth inhibition of human SW620 cells at 10 uM after 48 hrs by sulforhodamine B assay; details: SW-620, 48 h, values are per cent of control
SK-MEL-2 = test: Growth inhibition of human SK-MEL-2 cells at 10 uM after 48 hrs by sulforhodamine B assay; details: SK-MEL-2, 48 h, values are per cent of control
[18] = Growth inhibition of human SKOV3 cells at 10 uM after 48 hrs by sulforhodamine B assay; details: SK-OV-3, 48 h, values are per cent of control
786-0 = test: Growth inhibition of human 786-0 cells at 10 uM after 48 hrs by sulforhodamine B assay; details: 786-0, 48 h, values are per cent of control
[19] = Growth inhibition of human HCT15 cells at 10 uM after 48 hrs by sulforhodamine B assay; details: HCT-15, 48 h, values are per cent of control
[20] = Growth inhibition of human OVCAR5 cells at 10 uM after 48 hrs by sulforhodamine B assay; details: OVCAR-5, 48 h, values are per cent of control
[21] = Growth inhibition of human IGROV1 cells at 10 uM after 48 hrs by sulforhodamine B assay; details: IGROV-1, 48 h, values are per cent of control
[22] = Growth inhibition of human DU145 cells at 10 uM after 48 hrs by sulforhodamine B assay; details: DU-145, 48 h, values are per cent of control
M14 = test: Growth inhibition of human M14 cells at 10 uM after 48 hrs by sulforhodamine B assay; details: M14, 48 h, values are per cent of control

SMILES: N#C/C(=C\c1ccsc1)c1ccc2c(c1)OCO2
- growth, % of control at 10 µM (NCI-H23): 106%
- growth, % of control at 10 µM [1]: 67.7%
- growth, % of control at 10 µM (NCI-H460): 104%
- growth, % of control at 10 µM [2]: 102%
- growth, % of control at 10 µM [3]: 94.5%
- growth, % of control at 10 µM (SR): 86.5%
- growth, % of control at 10 µM [4]: 101%
- growth, % of control at 10 µM (A498): 103%
- growth, % of control at 10 µM [5]: 119%
- growth, % of control at 10 µM [6]: 97.3%
- growth, % of control at 10 µM (T47D): 90.7%
- growth, % of control at 10 µM (NCI-H226): 101%
- growth, % of control at 10 µM (K562): 105%
- growth, % of control at 10 µM [7]: 104%
- growth, % of control at 10 µM (SN12C): 104%
- growth, % of control at 10 µM [8]: 101%
- growth, % of control at 10 µM [9]: 113%
- growth, % of control at 10 µM [10]: 102%
- growth, % of control at 10 µM [11]: 106%
- growth, % of control at 10 µM (MDA-MB-468): 105%
- growth, % of control at 10 µM [12]: 105%
- growth, % of control at 10 µM [13]: 106%
- growth, % of control at 10 µM [14]: 101%
- growth, % of control at 10 µM [15]: 101%
- growth, % of control at 10 µM [16]: 91%
- growth, % of control at 10 µM (SK-MEL-28): 113%
- growth, % of control at 10 µM (NCI-H522): 95.4%
- growth, % of control at 10 µM (MDA-MB-435): 107%
- growth, % of control at 10 µM (U-251): 93.7%
- growth, % of control at 10 µM (ACHN): 112%
- growth, % of control at 10 µM (NCI-H322M): 90.6%
- growth, % of control at 10 µM [17]: 109%
- growth, % of control at 10 µM (SK-MEL-2): 106%
- growth, % of control at 10 µM [18]: 102%
- growth, % of control at 10 µM (786-0): 96.7%
- growth, % of control at 10 µM [19]: 107%
- growth, % of control at 10 µM [20]: 115%
- growth, % of control at 10 µM [21]: 96.4%
- growth, % of control at 10 µM [22]: 98.5%
- growth, % of control at 10 µM (M14): 105%
